Publication PMC7351026, “Serum Half-Lives for Short- and Long-Chain Perfluoroalkyl Acids after Ceasing Exposure from Drinking Water Contaminated by Firefighting Foam” (Environmental Health Perspectives, 2020)
Like-named read-outs stand apart in the source and are kept apart here.

Key:
[1] = Population average serum elimination rate and half-life (linear mixed model, one compartment, first-order)
Procedure: Serum PFAS concentrations were log-transformed. Time was calculated as the elapsed days between supply of clean bottled water and […] blood sampling. We assumed one compartment, first-order elimination kinetics. In this kinetic model, the body is considered as one homogeneous volume in which mixing is instantaneous and from which PFAS could be absorbed, transferred, and eliminated according to the rate of elimination that is proportional to the concentration of PFAS in the body. Two methods were used to estimate serum elimination rate constant (k) and half-life for each PFAS:
Briefly, in the linear mixed model In Cij=αi+tijβ+Xiβ′+εij, Cij is the serum concentration of PFAS for individual i at sampling round j; αi is the subject-specific intercept (random intercept); tij is the time; β is the average slope; Xi is a vector of fixed covariates for individual i; β′ stands for the fixed effect coefficients; and εij is the random error term. We modified the model by excluding the subject-specific slope (random slope) due to a failure to converge after inclusion, which may be due to the limited number of study subjects. The negative value of the average slope ( −β ) is the population average k, and average half-life is calculated as ln2/k .
In the linear mixed model, we included only age and sex as covariates. We based covariate selection on factors that could conceivably confound the PFAS half-life estimation. Working task, duration of employment, number of glasses of water per day, blood donation, and pregnancy before mitigation of PFAS exposure from drinking water can influence the initial serum levels but would not be expected to influence the PFAS half-life.
A sensitivity analysis was performed using the same linear mixed model but with Cij as the serum levels after subtracting general background levels (using the median levels obtained from the nonexposed reference population). If the serum PFAS levels after subtraction were lower than the half of the background levels, they were replaced with half of the background levels.

[2] = Urine/serum ratio in paired samples; assay type: in vivo, human; conditions: mean of four paired samplings per subject, 17 airport employees
Procedure: Urinary PFAS concentrations were specific-gravity adjusted. The ratio of urine and serum concentration for each PFAS (urine/serum ratio) at each sampling was calculated based on PFAS concentrations in paired serum and urine samples from 17 employees. Then the personal average urine/serum ratio was calculated using the mean value of repeated samplings for each employee.

[3] = set-up: method as in Zhang et al. 2015; conditions: ref Zhang et al. 2015, cited from earlier work
[4] = general Swedish population (Ronneby, 106 Swedes) with high exposure through drinking water, 2 y follow-up from 6 months after clean water; ref Li et al. 2018; cited from earlier work
[5] = PFAS levels in serum samples of airport employees (LC/MS/MS); conditions: all the serum samples, although elevated in the drinking water
Text: All 26 employees at the airport were invited for a blood sampling between 11 and 14 September 2018 (i.e., within 11 to 14 d after the termination of contaminated drinking-water exposure). Information on age, home address, employment history, working tasks, and sick leave and vacation days in August and September were collected by questionnaire. In addition, data on the number of glasses of water consumed per day, local fish consumption, and history of blood donation and medication were collected. For female employees, questions about menstruation, pregnancy, and duration of breast-feeding were asked.
The PFAS analysis in serum from the first sampling was immediately performed and personal results were reported to the employees. […] These 17 employees submitted four rounds of blood and first morning urine samples in parallel, at 1-month intervals. In total, there were five rounds of serum sampling (started from September) and four rounds of urine sampling (from October). For modeling of elimination, all samples were reanalyzed in a single batch. We obtained 83 serum samples with a median count of 5 (range: 4–5) samples per employee, and 59 urine samples with median of 4 (range: 1–4) samples per employee. Only one employee provided a single urine sample. The study was approved by the Regional Ethical Review Board in Lund, Sweden. All employees provided written informed consent.
Venous whole blood samples were obtained and were centrifuged for 10 min at 1,500×g at room temperature to isolate the serum on site. The serum samples were collected in 6-mL BD Vacutainer® Plus plastic serum tubes without gel (BD). Urine samples were collected in 13-mL polypropylene screw cap tubes (Sarstedt). Serum and urine samples were frozen at −20°C after sampling and transported to Lund using cold chain logistics. Serum and urine samples were stored at −80°C and −20°C , respectively, before analysis.
The serum samples, QC samples, and chemical blanks were prepared in 96-well plates with 1.5-mL flat-bottom glass vials (Biotech solutions). Serum samples were thawed for 1–2 h and mixed on a vortex shaker for approximately 10 s two times. Once after all samples were thawed and a second time before pipetting the serum to the plate. Before pipetting, the tip was pre-wetted several times, drawing a volume into the tip and dispensing it back into the tube. Sample preparation procedures for serum samples consisted of 25μL serum mixed with 25μL water, 25μL methanol, 25μL isotopically labeled internal standards in 50% acetonitrile (see Table S1), and 100μL acetonitrile. Thereafter, samples were mixed vigorous by shaking for 30 min and centrifuged at 2,600×g for 10 min at room temperature. The supernatant ( 0.2mL ) was transferred to 96-well plates with 0.5-mL conical glass vials (MicroLiter Analytical Supplies) and again centrifuged at 3,000×g for 10 min before analysis. The QC samples and chemical blanks were prepared following the same procedure as the serum samples. The calibration standards were prepared in FBS the same way as the samples, except for the addition of diluted reference standards of all analyzed compounds in 25μL of the methanol solution.
Aliquots of 4μL of the sample were analyzed using LC/MS/MS. For the analysis, a C18 column ( 4μm , 2.1mm i.d.×50mm , Genesis Lightning) was used prior to the injector to filter the mobile phases. The analytical column was an Aquity BEH ( 1.7μm , 2.1mm i.d.×100mm Waters). The mobile phases (A and B) were A: 5 mM ammonium acetate in water:methanol (50:50); and B: methanol. The mobile phase was kept at 0% B for 2.5 min after injection. A gradient was then applied over 11 min to 90% B, where it was then kept for 1.5 min. The column was then conditioned at 0% B for 2 min.

Compound	Average half-life longer than that of the PFCA with same number of carbon atoms ([1]; PFHpS vs PFHpA, PFOS vs PFOA) [y]	Average serum half-life ([1]; population average, linear mixed model with original serum levels, 17 airport employees after end of drinking-water exposure) [y]	Personal average urine/serum ratio, median (range) [2]	Urine/serum ratio ([3]; nonpregnant women)	Urine/serum ratio ([3]; pregnant women)	Average half-life [4] [y]	Level in serum samples [5]
O=S(=O)(O)C(F)(F)C(F)(F)C(F)(F)C(F)(F)C(F)(F)C(F)(F)C(F)(F)C(F)(F)F [PFOS, perfluorooctane sulfonic acid]	~1.2	2.9	0.00092	0.013	0.0004	3.4	–
O=C(O)C(F)(F)C(F)(F)C(F)(F)C(F)(F)F [PFPeA, perfluoropentanoic acid]	–	–	–	–	–	–	below LOD
